{
  "source": "patent US20260285850A1",
  "about": "“SUBSTITUTED OXAZOLIDINONES AND IMIDAZOLINONES AS HERBICIDES” (FMC CORPORATION, priority 2023, published 2026)",
  "assay_type_in_all_cases": "in vivo",
  "key": {"[1]": {"tested_on": "barnyardgrass (Echinochloa crus-galli)", "experiment": "Test A preemergence soil spray, visual injury rating 0-100", "conditions": "10 days", "summary_of_the_method": "(§1)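 Directed preemergence spray onto seeded soil or postemergence spray onto 2-10 cm plants (loam plus sand); compound carried in surfactant-containing non-phytotoxic solvent. Injury rated by eye after 10 d greenhouse growth; 0 = no effect, 100 = complete control.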"}, "[2]": {"tested_on": "green foxtail (Setaria viridis)", "experiment": "Test A preemergence soil spray, visual injury rating 0-100", "conditions": "10 days", "summary_of_the_method": "as §1"}, "[3]": {"tested_on": "ryegrass, Italian (italian ryegrass, Lolium multiflorum)", "experiment": "Test A preemergence soil spray, visual injury rating 0-100", "conditions": "10 days", "summary_of_the_method": "as §1"}, "[4]": {"tested_on": "wheat (Triticum aestivum)", "experiment": "Test A preemergence soil spray, visual injury rating 0-100", "conditions": "10 days", "summary_of_the_method": "as §1"}, "[5]": {"tested_on": "palmer (palmer amaranth, palmer pigweed, Amaranthus palmeri)", "experiment": "Test A preemergence soil spray, visual injury rating 0-100", "conditions": "10 days", "summary_of_the_method": "as §1"}, "corn (Zea mays) [6]": {"tested_on": "corn (Zea mays)", "experiment": "Test A preemergence soil spray, visual injury rating 0-100", "conditions": "10 days", "summary_of_the_method": "as §1"}, "soybean (Glycine max) [7]": {"tested_on": "soybean (Glycine max)", "experiment": "Test A preemergence soil spray, visual injury rating 0-100", "conditions": "10 days", "summary_of_the_method": "as §1"}, "kochia (Bassia scoparia) [8]": {"tested_on": "kochia (Bassia scoparia)", "experiment": "Test A preemergence soil spray, visual injury rating 0-100", "conditions": "10 days", "summary_of_the_method": "as §1"}, "[9]": {"tested_on": "ragweed (common ragweed, Ambrosia artemisiifolia)", "experiment": "Test A preemergence soil spray, visual injury rating 0-100", "conditions": "10 days", "summary_of_the_method": "as §1"}, "[10]": {"tested_on": "blackgrass (Alopecurus myosuroides)", "experiment": "Test A preemergence soil spray, visual injury rating 0-100", "conditions": "10 days", "summary_of_the_method": "as §1"}, "[11]": {"tested_on": "oat, wild (wild oat, Avena fatua)", "experiment": "Test A preemergence soil spray, visual injury rating 0-100", "conditions": "10 days", "summary_of_the_method": "as §1"}, "[12]": {"tested_on": "barnyardgrass (Echinochloa crus-galli)", "experiment": "Test A postemergence application, visual injury rating 0-100", "summary_of_the_method": "as §1"}, "[13]": {"tested_on": "green foxtail (Setaria viridis)", "experiment": "Test A postemergence application, visual injury rating 0-100", "summary_of_the_method": "as §1"}, "[14]": {"tested_on": "galium (catchweed bedstraw, Galium aparine)", "experiment": "Test A postemergence application, visual injury rating 0-100", "summary_of_the_method": "as §1"}, "[15]": {"tested_on": "ryegrass, Italian (italian ryegrass, Lolium multiflorum)", "experiment": "Test A postemergence application, visual injury rating 0-100", "summary_of_the_method": "as §1"}, "[16]": {"tested_on": "wheat (Triticum aestivum)", "experiment": "Test A postemergence application, visual injury rating 0-100", "summary_of_the_method": "as §1"}, "[17]": {"tested_on": "palmer (palmer amaranth, palmer pigweed, Amaranthus palmeri)", "experiment": "Test A postemergence application, visual injury rating 0-100", "summary_of_the_method": "as §1"}, "corn (Zea mays) [18]": {"tested_on": "corn (Zea mays)", "experiment": "Test A postemergence application, visual injury rating 0-100", "summary_of_the_method": "as §1"}, "soybean (Glycine max) [19]": {"tested_on": "soybean (Glycine max)", "experiment": "Test A postemergence application, visual injury rating 0-100", "summary_of_the_method": "as §1"}, "kochia (Bassia scoparia) [20]": {"tested_on": "kochia (Bassia scoparia)", "experiment": "Test A postemergence application, visual injury rating 0-100", "summary_of_the_method": "as §1"}, "[21]": {"tested_on": "ragweed (common ragweed, Ambrosia artemisiifolia)", "experiment": "Test A postemergence application, visual injury rating 0-100", "summary_of_the_method": "as §1"}, "[22]": {"tested_on": "blackgrass (Alopecurus myosuroides)", "experiment": "Test A postemergence application, visual injury rating 0-100", "summary_of_the_method": "as §1"}, "[23]": {"tested_on": "oat, wild (wild oat, Avena fatua)", "experiment": "Test A postemergence application, visual injury rating 0-100", "summary_of_the_method": "as §1"}, "[24]": {"tested_on": "sedge, umbrella (small-flower umbrella sedge, Cyperus difformis)", "experiment": "Test B flooded paddy test, visual plant response rating 0-100", "conditions": "250 g ai/ha, Flood, applied to paddy water, evaluated after 13 days", "summary_of_the_method": "(§2)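 In this flooded assay, 2-leaf seedlings received compound through the water layer, kept at 3 cm over the soil. Plants were held 13 days in a greenhouse and then visually compared with control pots.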"}, "rice (Oryza sativa)": {"tested_on": "rice (Oryza sativa)", "experiment": "Test B flooded paddy test, visual plant response rating 0-100", "conditions": "250 g ai/ha, Flood, applied to paddy water, evaluated after 13 days", "summary_of_the_method": "as §2"}, "[25]": {"tested_on": "ducksalad (Heteranthera limosa)", "experiment": "Test B flooded paddy test, visual plant response rating 0-100", "conditions": "250 g ai/ha, Flood, applied to paddy water, evaluated after 13 days", "summary_of_the_method": "as §2"}, "[26]": {"tested_on": "barnyardgrass (Echinochloa crusgalli)", "experiment": "Test B flooded paddy test, visual plant response rating 0-100", "conditions": "250 g ai/ha, Flood, applied to paddy water, evaluated after 13 days", "summary_of_the_method": "as §2"}, "[27]": {"conditions": "62 g ai/ha, 0 = no effect, 100 = complete control"}, "[28]": {"conditions": "62 g ai/ha, postemergence, 10 days, 0 = no effect, 100 = complete control"}, "[29]": {"conditions": "Postemergence, 16 g ai/ha, greenhouse 10 days, 0 no effect, 100 complete control"}},
  "data": [
    {"smiles": "C=CC1(C(=O)NC2CC=C(C(=O)OC)C2)CN(c2cc(F)cc(F)c2)C(=O)O1", "note": "(racemic) [Compound 169]", "values": [
      {"measurement": "Barnyardgrass plant response rating", "setting": "[1]; 16 g ai/ha, 0 to 100 scale", "result": 10},
      {"measurement": "Barnyardgrass plant response rating (0-100)", "setting": "[1]; [27]", "result": 90},
      {"measurement": "Foxtail, Green plant response rating", "setting": "[2]; 16 g ai/ha, 0 to 100 scale", "result": 0},
      {"measurement": "Foxtail, Green plant response rating (0-100)", "setting": "[2]; [27]", "result": 90},
      {"measurement": "Ryegrass, Italian plant response rating", "setting": "[3]; 16 g ai/ha, 0 to 100 scale", "result": 90},
      {"measurement": "Ryegrass, Italian plant response rating (0-100)", "setting": "[3]; [27]", "result": 90},
      {"measurement": "Wheat plant response rating", "setting": "[4]; 16 g ai/ha, 0 to 100 scale", "result": 80},
      {"measurement": "Wheat plant response rating (0-100)", "setting": "[4]; [27]", "result": 90},
      {"measurement": "Pigweed, Palmer plant response rating", "setting": "[5]; 16 g ai/ha, 0 to 100 scale", "result": 0},
      {"measurement": "Pigweed, Palmer plant response rating (0-100)", "setting": "[5]; [27]", "result": 50},
      {"measurement": "Corn plant response rating", "setting": "corn (Zea mays) [6]; 16 g ai/ha, 0 to 100 scale", "result": 0},
      {"measurement": "Corn plant response rating (0-100)", "setting": "corn (Zea mays) [6]; [27]", "result": 60},
      {"measurement": "Soybean plant response rating", "setting": "soybean (Glycine max) [7]; 16 g ai/ha, 0 to 100 scale", "result": 10},
      {"measurement": "Soybean plant response rating (0-100)", "setting": "soybean (Glycine max) [7]; [27]", "result": 20},
      {"measurement": "Kochia plant response rating", "setting": "kochia (Bassia scoparia) [8]; 16 g ai/ha, 0 to 100 scale", "result": 0},
      {"measurement": "Kochia plant response rating (0-100)", "setting": "kochia (Bassia scoparia) [8]; [27]", "result": 40},
      {"measurement": "Ragweed plant response rating", "setting": "[9]; 16 g ai/ha, 0 to 100 scale", "result": 0},
      {"measurement": "Ragweed plant response rating (0-100)", "setting": "[9]; [27]", "result": 10},
      {"measurement": "Blackgrass plant response rating", "setting": "[10]; 16 g ai/ha, 0 to 100 scale", "result": 0},
      {"measurement": "Blackgrass plant response rating (0-100)", "setting": "[10]; [27]", "result": 30},
      {"measurement": "Oat, Wild plant response rating", "setting": "[11]; 16 g ai/ha, 0 to 100 scale", "result": 20},
      {"measurement": "Oat, Wild plant response rating (0-100)", "setting": "[11]; [27]", "result": 50},
      {"measurement": "Barnyardgrass plant response rating (0-100)", "setting": "[12]; [28]", "result": 100},
      {"measurement": "Barnyardgrass plant response rating (0 to 100 scale)", "setting": "[12]; [29]", "result": 100},
      {"measurement": "Foxtail, Green plant response rating (0-100)", "setting": "[13]; [28]", "result": 90},
      {"measurement": "Foxtail, Green plant response rating (0 to 100 scale)", "setting": "[13]; [29]", "result": 90},
      {"measurement": "Galium plant response rating (0-100)", "setting": "[14]; [28]", "result": 80},
      {"measurement": "Galium plant response rating (0 to 100 scale)", "setting": "[14]; [29]", "result": 70},
      {"measurement": "Ryegrass, Italian plant response rating (0-100)", "setting": "[15]; [28]", "result": 90},
      {"measurement": "Ryegrass, Italian plant response rating (0 to 100 scale)", "setting": "[15]; [29]", "result": 80},
      {"measurement": "Wheat plant response rating (0-100)", "setting": "[16]; [28]", "result": 90},
      {"measurement": "Wheat plant response rating (0 to 100 scale)", "setting": "[16]; [29]", "result": 90},
      {"measurement": "Pigweed, Palmer plant response rating (0-100)", "setting": "[17]; [28]", "result": 70},
      {"measurement": "Pigweed, Palmer plant response rating (0 to 100 scale)", "setting": "[17]; [29]", "result": 20},
      {"measurement": "Corn plant response rating (0-100)", "setting": "corn (Zea mays) [18]; [28]", "result": 100},
      {"measurement": "Corn plant response rating (0 to 100 scale)", "setting": "corn (Zea mays) [18]; [29]", "result": 100},
      {"measurement": "Soybean plant response rating (0-100)", "setting": "soybean (Glycine max) [19]; [28]", "result": 70},
      {"measurement": "Soybean plant response rating (0 to 100 scale)", "setting": "soybean (Glycine max) [19]; [29]", "result": 60},
      {"measurement": "Kochia plant response rating (0-100)", "setting": "kochia (Bassia scoparia) [20]; [28]", "result": 80},
      {"measurement": "Kochia plant response rating (0 to 100 scale)", "setting": "kochia (Bassia scoparia) [20]; [29]", "result": 80},
      {"measurement": "Ragweed plant response rating (0-100)", "setting": "[21]; [28]", "result": 70},
      {"measurement": "Ragweed plant response rating (0 to 100 scale)", "setting": "[21]; [29]", "result": 0},
      {"measurement": "Blackgrass plant response rating (0-100)", "setting": "[22]; [28]", "result": 100},
      {"measurement": "Blackgrass plant response rating (0 to 100 scale)", "setting": "[22]; [29]", "result": 100},
      {"measurement": "Oat, Wild plant response rating (0-100)", "setting": "[23]; [28]", "result": 90},
      {"measurement": "Oat, Wild plant response rating (0 to 100 scale)", "setting": "[23]; [29]", "result": 90},
      {"measurement": "Plant response rating, Sedge, Umbrella (0 to 100 scale, 0 is no effect and 100 is complete control)", "setting": "[24]", "result": 100},
      {"measurement": "Plant response rating, Rice (0 to 100 scale, 0 is no effect and 100 is complete control)", "setting": "rice (Oryza sativa)", "result": 95},
      {"measurement": "Plant response rating, Ducksalad (0 to 100 scale, 0 is no effect and 100 is complete control)", "setting": "[25]", "result": 100},
      {"measurement": "Plant response rating, Barnyardgrass (0 to 100 scale, 0 is no effect and 100 is complete control)", "setting": "[26]", "result": 90}
    ]}
  ]
}
